In patent US20210386068A1, “COMPOSITIONS COMPRISING PYRIDINE CARBOXYLATE HERBICIDES AND VERY LONG CHAIN FATTY ACID (VLCFA) SYNTHESIS INHIBITOR HERBICIDES” (priority 2018, published 2021):
Several values for one entry are separate records, joined by “and”; a condition that tells them apart may be missing. Identical values can stand only once.

What was measured:
[1] = system: Salsola kali (Russian thistle, SASKR); assay: Greenhouse postemergence herbicidal effect, visual injury 20-22 d after spraying, Russian thistle (SASKR); type: in vivo; conditions: for % visual injury Obs: SASKR
Excerpt: (§1) Seeds of the desired test plant species were planted in a 90:10% v/v (volume/volume) mixture of PRO-MIX® BX (Premier Tech Horticulture, Quakertown, Pa., USA) and PROFILE® GREENS GRADE™ (Profile Products LLC, Buffalo Grove, Ill., USA) planting mixture, which typically has a pH of 5.2 to 6.2 and an organic matter content of at least 50 percent, in plastic pots with a surface area of 103.2 square centimeters (cm^2). In some aspects, to ensure good germination and healthy plants, a fungicide treatment and/or other chemical or physical treatment was applied. The plants were grown for 7-36 days (d) in a greenhouse with an approximate 14-hour (h) photoperiod which was maintained at about 23° C. during the day and 22° C. during the night. Nutrients and water were added on a regular basis and supplemental lighting was provided with overhead metal halide 1000-Watt lamps as necessary. The plants were employed for testing when they reached the second or third true leaf stage.
(§2) Emulsifiable concentrates of each of each pyridine carboxylate herbicide (Compound A or Compound B) were prepared at 100 grams acid equivalent per liter (g ae/L). The emulsifiable concentrates also included a safener, cloquintocet-mexyl, at 120 grams active ingredient per liter (g ai/L). An aliquot of each emulsifiable concentrate was placed in a 25 mL glass vial and diluted with an aqueous mixture of 1.25% (v/v) ACTIROB® B esterified rapeseed oil (Bayer Crop Science, Research Triangle Park, N.C., USA) or MSO® Concentrate with LECI-TECH® methylated soybean oil (Loveland Products, Loveland, Colo., USA) to obtain concentrated stock solutions at the highest application rate for each herbicide, based upon a 12 milliliter (mL) application volume at a rate of 187 liters per hectare (L/ha). The concentrated stock solutions were further diluted with an aqueous mixture of 1.25% v/v ACTIROB® B or MSO® Concentrate with LECI-TECH® to obtain stock solutions at reduced application rates for each herbicide. Spray solutions of the herbicide combinations (Compound A or Compound B plus VLCFA synthesis inhibitor herbicide) were prepared by adding weighed amounts or aliquots of the VLCFA synthesis inhibitor herbicide to the stock solutions of Compound A or Compound B to form 12-mL spray solutions in two-way combinations.
(§3) The spray solutions were applied to the plant material with an overhead Mandel track sprayer equipped with 8002E nozzles calibrated to deliver 187 L/ha over an application area of 0.503 square meters (m^2) at a spray height of 18 inches ([…] (cm)) above the average plant canopy. Control plants were sprayed in the same manner with the solvent blank. All pyridine carboxylate herbicide (component a) application rates are given as “g ae/ha” and all VLCFA synthesis inhibitor herbicide (component b) application rates are given as “g ai/ha.”
(§4) The treated plants and control plants were placed in a greenhouse as described above and watered by sub-irrigation to prevent wash-off of the test compounds. After 20-22 d, the condition of the test plants as compared with that of the control plants was determined visually and scored on a scale of 0 to 100 percent where 0 corresponds to no injury and 100 corresponds to complete kill.

[2] = system: Kochia scoparia (kochia, KCHSC); assay: Greenhouse postemergence herbicidal effect, visual injury 20-22 d after spraying, kochia (KCHSC); type: in vivo; conditions: for % visual injury Obs: KCHSC
Excerpt: as §1, §2, §3, §4

[3] = system: Matricaria chamomilla (wild chamomile, MATCH); assay: Greenhouse postemergence herbicidal effect, visual injury 20-22 d after spraying, wild chamomile (MATCH); type: in vivo
Excerpt: as §1, §2, §3, §4

[4] = system: Hordeum vulgare (spring barley, HORVS); assay: Greenhouse postemergence crop phytotoxicity, visual injury 20-22 d after spraying, spring barley (HORVS); type: in vivo; conditions: for % visual injury Obs: HORVS
Excerpt: as §1, §2, §3, §4

[5] = system: Abutilon theophrasti (velvetleaf, ABUTH); assay: Greenhouse postemergence herbicidal effect, visual injury 20-22 d after spraying, velvetleaf (ABUTH); type: in vivo
Excerpt: as §1
(§5) Emulsifiable concentrates of each of each pyridine carboxylate herbicide (Compound A or Compound B) were prepared at 100 grams acid equivalent per liter (g ae/L). The emulsifiable concentrates also included a safener, cloquintocet-mexyl, at 120 grams active ingredient per liter (g ai/L). […]
as §4

[6] = system: Ipomoea hederacea (ivyleaf morningglory, IPOHE); assay: Greenhouse postemergence herbicidal effect, visual injury 20-22 d after spraying, ivyleaf morningglory (IPOHE); type: in vivo
Excerpt: as §1, §5, §4

[7] = system: Brassica napus (spring rape, BRSNN); assay: Greenhouse postemergence herbicidal effect, visual injury 20-22 d after spraying, spring rape (BRSNN); type: in vivo
Excerpt: as §1, §2, §3, §4

[8] = system: Veronica persica (Persian speedwell, VERPE); assay: Greenhouse postemergence herbicidal effect, visual injury 20-22 d after spraying, Persian speedwell (VERPE); type: in vivo
Excerpt: as §1, §2, §3, §4

[9] = system: Matricaria discoidea (pineapple weed, MATMT); assay: Greenhouse postemergence herbicidal effect, visual injury 20-22 d after spraying, pineapple weed (MATMT); type: in vivo
Excerpt: as §1, §2, §3, §4

[10] = system: Stellaria media (common chickweed, STEME); assay: Greenhouse postemergence herbicidal effect, visual injury 20-22 d after spraying, common chickweed (STEME); type: in vivo
Excerpt: as §1, §2, §3, §4

[11] = system: Anthemis arvensis (corn chamomile, ANTAR); assay: Greenhouse postemergence herbicidal effect, visual injury 20-22 d after spraying, corn chamomile (ANTAR); type: in vivo
Excerpt: as §1, §2, §3, §4

[12] = system: Cyanus segetum (cornflower, CENCY); assay: Greenhouse postemergence herbicidal effect, visual injury 20-22 d after spraying, cornflower (CENCY); type: in vivo
Excerpt: as §1, §2, §3, §4

winter wheat (TRZAW) = assay: Greenhouse postemergence crop phytotoxicity, visual injury 20-22 d after spraying, winter wheat (TRZAW); type: in vivo, Triticum aestivum
Excerpt: as §1, §2, §3, §4

SMILES: N#CCOC(=O)c1nc(-c2ccc3cc[nH]c3c2F)c(F)c(N)c1Cl [Compound A, cyanomethyl 4-amino-3-chloro-5-fluoro-6-(7-fluoro-1H-indol-6-yl)pyridine-2-carboxylate]
- % visual injury SASKR Obs ([1]; Compound A 7.5 g/ha): 50%
- % visual injury SASKR Obs ([1]; Compound A 10 g/ha): 60%
- % visual injury SASKR Obs ([1]; Compound A 15 g/ha): 63%
- % visual injury Obs ([1]; Compound A 7.5 g/ha alone): 60% and 45% and 38%
- % visual injury Obs ([1]; Compound A 10 g/ha alone): 63% and 60%
- % visual injury KCHSC Obs ([2]; Compound A 7.5 g/ha): 63%
- % visual injury KCHSC Obs ([2]; Compound A 10 g/ha): 65%
- % visual injury KCHSC Obs ([2]; Compound A 15 g/ha): 63%
- % visual injury Obs ([2]; Compound A 7.5 g/ha alone): 63% and 50% and 70%
- % visual injury Obs ([2]; Compound A 10 g/ha alone): 63% and 58% and 55% and 70%
- % visual injury MATCH Obs ([3]; Compound A 7.5 g/ha): 23%
- % visual injury MATCH Obs ([3]; Compound A 10 g/ha): 35%
- % visual injury MATCH Obs ([3]; Compound A 15 g/ha): 45%
- % visual injury HORVS Obs ([4]; Compound A 7.5 g/ha): 0%
- % visual injury HORVS Obs ([4]; Compound A 10 g/ha): 0%
- % visual injury HORVS Obs ([4]; Compound A 15 g/ha): 0%
- % visual injury Obs ([4]; Compound A 7.5 g/ha alone): 0% and 8%
- % visual injury Obs ([4]; Compound A 10 g/ha alone): 0%
- % visual injury Obs ([5]; Compound A 7.5 g/ha alone): 40%
- % visual injury Obs ([5]; Compound A 10 g/ha alone): 48%
- % visual injury Obs ([6]; Compound A 7.5 g/ha alone): 5%
- % visual injury Obs ([6]; Compound A 10 g/ha alone): 0%
- % visual injury Obs ([7]; Compound A 7.5 g/ha alone): 55%
- % visual injury Obs ([7]; Compound A 10 g/ha alone): 60% and 70%
- % visual injury VERVE Obs ([8]; Compound A 7.5 g/ha): 78%
- % visual injury VERVE Obs ([8]; Compound A 10 g/ha): 90%
- % visual injury VERVE Obs ([8]; Compound A 15 g/ha): 93%
- % visual injury MATMT Obs ([9]; Compound A 7.5 g/ha): 20%
- % visual injury MATMT Obs ([9]; Compound A 10 g/ha): 20%
- % visual injury MATMT Obs ([9]; Compound A 15 g/ha): 63%
- % visual injury STEME Obs ([10]; Compound A 7.5 g/ha): 85%
- % visual injury STEME Obs ([10]; Compound A 10 g/ha): 88%
- % visual injury STEME Obs ([10]; Compound A 15 g/ha): 89%
- % visual injury ANTAR Obs ([11]; Compound A 7.5 g/ha): 68%
- % visual injury ANTAR Obs ([11]; Compound A 10 g/ha): 70%
- % visual injury ANTAR Obs ([11]; Compound A 15 g/ha): 88%
- % visual injury CENCY Obs ([12]; Compound A 7.5 g/ha): 75%
- % visual injury CENCY Obs ([12]; Compound A 10 g/ha): 78%
- % visual injury CENCY Obs ([12]; Compound A 15 g/ha): 80%
- % visual injury TRZAW Obs (winter wheat (TRZAW); Compound A 7.5 g/ha): 0%
- % visual injury TRZAW Obs (winter wheat (TRZAW); Compound A 10 g/ha): 0%
- % visual injury TRZAW Obs (winter wheat (TRZAW); Compound A 15 g/ha): 0%
